Data published in patent US6977262B2, “Dihydropyrazolopyridine compounds and pharmaceutical use thereof” (Mitsubishi Pharma Corporation, priority 2001, dated 2005).

SMILES | melting point [°C]
C=CCCC(=O)n1cc2c(n1)NC(CCC)=C(C#N)C2c1ccccc1Cl (centres unmarked) [Example 358, 4-(2-Chlorophenyl)-5-cyano-4,7-dihydro-2-(4-pentenoyl)-6-propyl-2H-pyrazolo[3,4-b]pyridine] | 176 to 177
CCCC1=C(C#N)C(c2cccc(C)n2)c2c[nH]nc2N1 (centres unmarked) [Example 359, 5-Cyano-4,7-dihydro-4-(6-methylpyridin-2-yl)-6-propyl-2H-pyrazolo[3,4-b]pyridine] | 177 to 181
CC(C)(C)OC(=O)N1CCC(C2=C(C#N)C(c3cccc4nonc34)c3c[nH]nc3N2)CC1 (centres unmarked) [Example 1001, 4-(2,1,3-Benzoxadiazol-4-yl)-6-(1-t-butoxycarbonylpiperidin-4-yl)-5-cyano-4,7-dihydro-2H-pyrazolo[3,4-b]pyridine] | 226
CC(C)(C)OC(=O)N1CCCC(C2=C(C#N)C(c3cccc4nonc34)c3c[nH]nc3N2)C1 (centres unmarked) [Example 1004, 4-(2,1,3-Benzoxadiazol-4-yl)-6-(1-t-butoxycarbonylpiperidin-3-yl)-5-cyano-4,7-dihydro-2H-pyrazolo[3,4-b]pyridine] | 229
CN1CCCC(C2=C(C#N)C(c3cccc4nonc34)c3c[nH]nc3N2)C1 (centres unmarked) [Example 1006, 4-(2,1,3-Benzoxadiazol-4-yl)-5-cyano-4,7-dihydro-6-(1-methylpiperidin-3-yl)-2H-pyrazolo[3,4-b]pyridine] | 228
CC(C)(C)OC(=O)N1CC=C(C2=C(C#N)C(c3cccc4nonc34)c3c[nH]nc3N2)CC1 (centres unmarked) [Example 1012, 4-(2,1,3-Benzoxadiazol-4-yl)-6-(1-t-butoxycarbonyl-1,2,3,6-tetrahydropyridin-4-yl)-5-cyano-4,7-dihydro-2H-pyrazolo[3,4-b]pyridine] | 222
N#CC1=C(C2=CCNCC2)Nc2n[nH]cc2C1c1cccc2nonc12 (centres unmarked) [Example 1013, 4-(2,1,3-Benzoxadiazol-4-yl)-5-cyano-4,7-dihydro-6-(1,2,3,6-tetrahydropyridin-4-yl)-2H-pyrazolo[3,4-b]pyridine] | 180

Next, values leading:

melting point [°C] | SMILES
140 | C=CCCC(=O)n1ncc2c1NC(CCC)=C(C#N)C2c1ccccc1Cl (centres unmarked) [Example 357, 4-(2-Chlorophenyl)-5-cyano-4,7-dihydro-1-(4-pentenoyl)-6-propyl-1H-pyrazolo[3,4-b]pyridine]
202 to 205 | CCCC1=C(C#N)C(c2cccc(Br)c2)c2c[nH]nc2N1 (centres unmarked) [Example 362, 4-(3-Bromophenyl)-5-cyano-4,7-dihydro-6-propyl-2H-pyrazolo[3,4-b]pyridine]
209 to 212 | CCCC1=C(C#N)C(c2ccc(F)cc2Cl)c2c[nH]nc2N1 (centres unmarked) [Example 363, 5-Cyano-4,7-dihydro-4-(4-fluoro-2-chlorophenyl)-6-propyl-2H-pyrazolo[3,4-b]pyridine]
196 to 200 | CCCC1=C(C#N)C(c2cccc(N3CCOCC3)c2)c2c[nH]nc2N1 (centres unmarked) [Example 364, 5-Cyano-4,7-dihydro-4-(3-(morpholin-4-yl)phenyl)-6-propyl-2H-pyrazolo[3,4-b]pyridine]
254 to 257 | CC(C)C1=C(C#N)C(c2cccc(N3CCOCC3)c2)c2c[nH]nc2N1 (centres unmarked) [Example 365, 5-Cyano-4,7-dihydro-4-(3-(morpholin-4-yl)phenyl)-6-isopropyl-2H-pyrazolo[3,4-b]pyridine]
> 260 | N#CC1=C(C2CC2)Nc2n[nH]cc2C1c1cccc(N2CCOCC2)c1 (centres unmarked) [Example 366, 5-Cyano-6-cyclopropyl-4,7-dihydro-4-(3-(morpholin-4-yl)phenyl)-2H-pyrazolo[3,4-b]pyridine]
202 | N#CC1=C(C2CCCNC2)Nc2n[nH]cc2C1c1cccc2nonc12 (centres unmarked) [Example 1005, 4-(2,1,3-Benzoxadiazol-4-yl)-5-cyano-4,7-dihydro-6-(piperidin-3-yl)-2H-pyrazolo[3,4-b]pyridine]
